Assay results taken from paper PMC10874388, “Cyclic peptides discriminate BCL-2 and its clinical mutants from BCL-XL by engaging a single-residue discrepancy” (Nature Communications, 2024).
Where “and” joins values, the source holds several entries; their conditions need not be identical. Identical values can stand only once. Starred links: 1 amine or outer side, 2 acyl side, 3 side chain; linkers in the order of their positions; H or OH if unused. Positions of bridges follow the written chain, without caps; N, C: chain ends. Residues, ends and D or L forms follow the SMILES beside them. X1 = O=C(C[*:2])NCCNC(=O)c1ccc(C2=N[C@H](C(=O)[*:1])CS2)cc1

Legend:
Format in all cases: cell-based
MGC-803 cells = test: Cell viability assay (CellTiter-Glo), MGC-803; conditions: TAT control
Protocol: (§1) The cell lines Jurkat (TIB-152), El4 (TIB-39), Daudi (ccl-213), RS4:11 (crl-1873), A549 (ccl-185), HepG2 (hb-8065) and PANC-1 (crl-1469) were purchased from ATCC (American Type Culture Collection), and MGC-803 (C6582) was purchased from Beyotime (https://www.beyotime.com/product/C6582.htm). […] Daudi and RS4:11 cells were cultured in RPMI-1640 medium (HyClone, SH30809.01) and 10% FBS (Gibco, 10099-141), whereas HepG2, MGC-803 and PANC-1 cells were cultured in MDEM (HyClone, SH30243.01). Cells were maintained at 37 °C under a humidified, 5% (v/v) CO2-containing atmosphere.
(§2) Cell viability was measured using CellTiter-Glo® 2.0 Reagent (Promega, G9242). […] After different inhibitors were added into serum-free medium and cultured for 4 h (RS4:11 for 6 h), FBS were supplemented to 10% and then incubated totally for 24 h or 48 h. Finally, the IC50 values were calculated based on measurements using a microplate reader (Thermo, Varioskan LUX). Statistical analysis was performed using software GraphPad Prism 7.0.
(§3) Supplementary Figure 10 Functional mechanism of CPs. a. IC50 values of venetoclax against A549, MGC-803 and PANC-1 cells, measured after 48 h treatment by a CellTiter-Glo assay and calculated using Prism 7.0 by a nonlinear-fit method. Data are presented as mean ± s.d.; n= 6 biological replicates. b. […]
(§4) Glo assay. Each data point represents the mean ± s.d. for 6 biological replicates.
(§5) Supplementary Figure 11 IC50 values of different inhibitors against different cell lines. a-d. Viability of A549 (a), HepG2 (b), MGC-803 (c) and PANC-1 (d) cells treated with various concentrations of ABT-199 (venetoclax), and measured after 48 h by a CellTiter-Glo assay. e, f. Viability of Jurkat cells (e) and Daudi cells (f) treated with […]
(§6) after 48 h by a CellTiter-Glo assay. Each data point represents the mean ± s.d. for 6 biological replicates.
(§7) (1 picture or pasted object on this page, not shown here)

A549 cells (control) = test: Cell viability assay (CellTiter-Glo), normal A549 (control); conditions: TAT control
Protocol: as §1, §2

[1] = test system: A549 cells overexpressing BCL-2 WT; test: Cell viability assay, A549 stably overexpressing BCL-2 WT; conditions: BCL2-WT A549, TAT control
Protocol: as §2
(§8) Lentivirus packaging vectors pMDLg/pRRE, pRSV-Rev, and pVSV-G were obtained from Prof. Han Jiahuai’s lab (Xiamen University). Lentiviruses were produced using 3rd-generation lentivirus packaging plasmids transiently transfected into HEK293T cells with the constructs of interest using 0.25 M CaCl2. Media was changed after 16 h, and supernatants containing infectious virus particles were harvested 24 h later. A second viral harvest was made following a further 24 h incubation with fresh media. Virus containing supernatant was filtered through a […], and stored at 4 °C or −80 °C until being used. Typically, A549 cells were seeded into 10 cm cell culture dishes at 4 ~ 8 × 10^5 cells/cm^2. An equivalent volume of virus containing culture medium was added along with polybrene (Sigma) to a final concentration of 10 µg/mL. Cells were incubated at 37 °C for 20 h, before they were washed and resuspended in fresh culture media. The expression level of BCL-2 was measured by qPCR and western blot methods.

PANC-1 cells = test: Cell viability assay (CellTiter-Glo), PANC-1; conditions: PNAC-1, TAT control
Protocol: as §1, §2, §3, §4, §5, §6, §7

[2] = test system: A549 cells overexpressing BCL-2 G101V; test: Cell viability assay, A549 stably overexpressing BCL-2 G101V; conditions: BCL2/G101V A549, TAT control
Protocol: as §2, §8

Jurkat cells [3] = test: Mitochondrial membrane potential (JC-1), flow cytometry and fluorescence microscopy; conditions: for Q1(%) / Q1(%)/Q3(%) / Q3(%): Figure 6d, 4h, replicate values; for ΔΨm (ratio of red over green fluorescence, Q1/Q3): 4 h treatment, JC-1, flow cytometry, n = 3
Protocol: For the mitochondrial membrane potential (ΔΨm) analysis, the mitochondrial membrane potential assay kit with JC-1 dye (Beyotime, C2006) was used according to the manufacturer’s protocol. […] The value of ΔΨm was expressed as the ratio of red fluorescence intensity over green fluorescence intensity. After treated with JC-1, fluorescence intensity of Jurkat cells was tested by flow cytometry (BD FACSAria Fusion) and fluorescence microscopy (NIKON Ti-E), respectively. All experiments were performed in triplicate. Statistical analysis was performed using software GraphPad Prism 7.0.

Jurkat cells [4] = test: Apoptosis assay, Annexin V-FITC/PI staining and flow cytometry
Protocol: Jurkat cells were seeded to 6-well plates at a density of 4 ×10^5 cells per well. Cells were incubated in the presence of DMSO, venetoclax at 2.5 μM, cp1-TAT at 30 μM, cp2-TAT at 30 μM, or cp3-TAT at 20 μM in serum-free RPMI medium for 4 h. After being incubated totally for 24 h, cells were washed once with PBS and stained with 100 μL binding buffer containing 5 μL Annexin V-FITC and 10 μL PI for 15 min, followed by addition of 400 μL binding buffer to detect cell apoptosis with FCM (BD FACSAria Fusion). Statistical analysis was performed using software FlowJo V10 and GraphPad Prism 7.0.

RS4:11 cells = test: Cell viability assay (CellTiter-Glo), RS4:11; conditions: RS4:11, single wells
Protocol: as §1, §2

TAT (GSGSRKKRRQRRR) was tested, and the “average (raw viability reading)” value (MGC-803 cells) was 627500, the inhibition rate (MGC-803 cells; fraction, replicates) was 0.09219 and 0.04796 and 0.06436 and 0.05774 and 0.0275 and 0.04676 and the raw viability reading (MGC-803 cells; replicates) was 622000 and 626400 and 646500 and 633700 and 603500 and 632900. The “average (raw viability reading)” value (A549 cells (control); A549) was 422183, the inhibition rate (A549 cells (control); A549, fraction, replicates) was 0.1678 and 0.2197 and 0.2282 and 0.2003 and 0.1961 and 0.2135 and the raw viability reading (A549 cells (control); A549, replicates) was 409500 and 424300 and 426500 and 417300 and 441500 and 414000. For the same molecule, the “luminescence reading (raw, replicate wells)” value (A549 cells (control); control A549) was 640800 and 544000 and 632800 and 539700 and 559000 and 590400, the “luminescence reading, everage” value (A549 cells (control); control A549, mean of 6 wells) was 584450 and the “luminescence reading (raw, replicate wells)” value [1] was 525300 and 568300 and 525100 and 556600 and 515500 and 559500. For the same molecule, the “luminescence reading, everage” value ([1]; mean of 6 wells) was 541717, the “average (raw viability reading)” value (PANC-1 cells) was 639133 and the inhibition rate (PANC-1 cells; fraction, replicates) was 0.2393 and 0.182 and 0.1596 and 0.1507 and 0.1102 and 0.1321. For the same molecule, the raw viability reading (PANC-1 cells; replicates) was 580400 and 624100 and 641200 and 648000 and 678900 and 662200, the “luminescence reading (raw, replicate wells)” value [2] was 540600 and 529300 and 534000 and 526600 and 523000 and 507100 and the “luminescence reading, everage” value ([2]; mean of 6 wells) was 526767. The “Q1(%)” value (Jurkat cells [3]) was 92.3% and 93.6% and 94.9%, the “Q1(%)/Q3(%)” value (Jurkat cells [3]) was 22.1343 and 27.3684 and 32.6117 and the “Q3(%)” value (Jurkat cells [3]) was 4.17% and 3.42% and 2.91%. The “ΔΨm (ratio of red over green fluorescence, Q1/Q3)” value (Jurkat cells [3]; Jurkat) was 27.37.
`CC[C@H](C)[C@@H]1NC(=O)[C@@H]2CCCN2C(=O)[C@@H]2CSC(=N2)c2ccc(cc2)C(=O)NCCNC(=O)CSC[C@@H](C(=O)NCC(=O)N[C@@H](CO)C(=O)NCC(=O)N[C@@H](CO)C(=O)N[C@@H](CCCNC(=N)N)C(=O)N[C@@H](CCCCN)C(=O)N[C@@H](CCCCN)C(=O)N[C@@H](CCCNC(=N)N)C(=O)N[C@@H](CCCNC(=N)N)C(=O)N[C@@H](CCC(N)=O)C(=O)N[C@@H](CCCNC(=N)N)C(=O)N[C@@H](CCCNC(=N)N)C(=O)N[C@@H](CCCNC(=N)N)C(N)=O)NC(=O)[C@H](Cc2ccccc2)NC(=O)[C@H](CCC(=O)O)NC(=O)[C@H](CC(=O)O)NC(=O)[C@H](Cc2c[nH]c3ccccc23)NC(=O)[C@H](CCC(=O)O)NC(=O)[C@H](Cc2ccc(O)cc2)NC(=O)[C@H](CCCNC(=N)N)NC1=O` [cp2-TAT] (PIRYEWDEFCGSGSRKKRRQRRR-NH2; linker N-10 via X1; C-terminus assumed) was tested, and the “cell apoptosis(%)” value (Jurkat cells [4]; Figure 6b, replicate values) was 18.83% and 24.52%, the “Proportion of apoptotic cells” value (Jurkat cells [4]; Jurkat, 24 h, 30 μM) was 18.83% and the raw luminescence reading (RS4:11 cells; 0.0488281 uM) was 377400 and 399400 and 472900 and 398600 and 396500 and 376600. The inhibition rate (RS4:11 cells; 0.0488281 uM, 0.0488281 µM) was 9%, the raw luminescence reading (RS4:11 cells; 0.0976562 uM) was 367900 and 411600 and 442500 and 406100 and 405700 and 384000 and the raw luminescence reading (RS4:11 cells; 0.195312 uM) was 397400 and 403000 and 448800 and 404500 and 392400 and 382800. For the same molecule, the raw luminescence reading (RS4:11 cells; 0.390625 uM) was 444700 and 450800 and 451700 and 438000 and 424700 and 412100, the inhibition rate (RS4:11 cells; 0.390625 uM, 0.390625 µM) was -7.55% and -9% and -6% and -2.71% and 0.339% and the raw luminescence reading (RS4:11 cells; 0.78125 uM) was 472600 and 478400 and 471500 and 453400 and 442900 and 434600. For the same molecule, the inhibition rate (RS4:11 cells; 0.78125 uM, 0.78125 µM) was -14%, the raw luminescence reading (RS4:11 cells; 1.5625 uM) was 448100 and 455300 and 501800 and 445000 and 424900 and 404900 and the raw luminescence reading (RS4:11 cells; 3.125 uM) was 365800 and 401400 and 456400 and 498100 and 396600 and 403200. For the same molecule, the raw luminescence reading (RS4:11 cells; 6.25 uM) was 354100 and 405500 and 450900 and 485900 and 401500 and 412400, the raw luminescence reading (RS4:11 cells; 12.5 uM) was 349800 and 390500 and 462000 and 475300 and 407800 and 417800 and the raw luminescence reading (RS4:11 cells; 25 uM) was 354900 and 371900 and 417300 and 420500 and 396000 and 400300. The raw luminescence reading (RS4:11 cells; 50 uM) was 273500 and 288400 and 308900 and 317300 and 306600 and 319600, the inhibition rate (RS4:11 cells; 50 uM, 50 µM) was 34% and 30% and 25% and 23% and 26% and the raw luminescence reading (RS4:11 cells; 100 uM) was 86770 and 92180 and 107300 and 109400 and 97150 and 101700. The inhibition rate (RS4:11 cells; 100 uM, 100 µM) was 79% and 78% and 74% and 77% and 75%, the “Q1(%)” value (Jurkat cells [3]) was 90.3% and 89.6% and 90% and the “Q1(%)/Q3(%)” value (Jurkat cells [3]) was 12.1534 and 10.7049 and 11.4358. The “Q3(%)” value (Jurkat cells [3]) was 7.43% and 8.37% and 7.87%, the “ΔΨm (ratio of red over green fluorescence, Q1/Q3)” value (Jurkat cells [3]; Jurkat) was 11.43 and the “Relative ΔΨm by JC-1 fluorescence staining (microscopy)” value (Jurkat cells [3]; Jurkat, 24 h treatment (Supplementary Fig. 13)) was “slightly decreased”.
